Results: patent publication US20090253745A1, “MODULATORS OF OCULAR OXIDATIVE STRESS” (SIRION THERAPEUTICS, INC., priority 2007, published 2009)

Tests used:
[1] = in vitro; type: in vitro ADME; settings: mouse; 1 mM TAPP1, anterior segments of twelve eyeglobes in 0.5 ml MEM, 37° C.; read-out: half-life of hydrolysis
Protocol: FIG. 2. In vitro hydrolysis of TAPP1 by anterior segments from mouse eyeglobes. Anterior segments were isolated from twelve wild-type mouse eyeglobes, and cultured in 0.5 ml of MEM media. TAPP1 was added to the culture to a final concentration of 1 mM, and the sample was incubated at 37° C. At 0, 1, 5, 15, 30, 60 and 120 min following incubation, 20 μl aliquot samples were removed from the culture. The aliquots were mixed with equal volume of ice-cold methanol, and incubated on ice for 10 min, followed by centrifugation at 25,000 g to precipitate proteins. TAPP1 content in the supernatant was analyzed by a capillary reverse phase C18 column. The relative quantity of TAPP1 was determined by integration of chromatographic peak area. […] Release of the two products of TAPP1 hydrolysis (designated HP-1 and HP-2) was […] to the rate of TAPP1 hydrolysis (not shown). Corneal esterases may be largely responsible for the hydrolysis of TAPP1.
The compound TAPP1 (C18H24N4O3), MW 344.18, is formulated as described above. A 40 mM solution of TAPP1 is used. […] TAPP content of the supernatant is analyzed by a capillary reverse phase C18 column. […] The relative quantity of the TAPP is determined by area integration of the TAPP elution peak. […] Isoprostanes are measured with a commercially available in vitro assay kit.

[2] = tested on: eyeglobes of mice; experiment: Ex vivo lens toxicity test, whole eyeglobes cultured overnight; settings: overnight incubation, media containing 45% β-cyclodextrin, 37° C.
Protocol: FIG. 3. Ex vivo lens toxicity test of TAPP1. The eyeglobes of mice (aged 42 days) were cultured overnight either with control solution (media containing 45% β-cyclodextrin) or TAPP1 (TAPP1 in media containing 45% β-cyclodextrin), at 37° C. overnight, and in 95% air/5% CO2. […] To determine the effects of TAPP1 on isolated lenses, intact lenses were dissected from wild-type mouse eyeglobes, and incubated in DMEM media in a 96 well tissue culture plate. Groups of 3-6 lenses were incubated in 200 μl of media alone (negative control), 4% (2-hydroxypropyl)-β-cyclodextrin (carrier control), 8 mM hydrogen peroxide (H2O2, positive control for lens toxicity), 4 mM TAPP1-O (free radical form), 4 mM TAPP1-R (reduced form), and 4 mM of the two products of TAPP1-R hydrolysis (HP-1 and HP-2), respectively. β-cyclodextrin was included as a carrier control because all of the stock solutions contained 45% (2-hydroxypropyl)-β-cyclodextrin. The samples were incubated in 5% CO2 incubator at 37 C for 2 days.
The TAPP compositions are intended for topical delivery to the anterior portion of the eye. […] Morphological or anatomical effects are determined by comparison of TAPP-treated samples to samples incubated with either the TAPP vehicle or samples which are exposed (10 min treatment) to 100% ethanol (a positive control for lens toxicity). […]

Which half-life [1] does the source give for `CC1(C)CC(OC(=O)c2cc(-c3ccncc3)n[nH]2)CC(C)(C)N1[O]` [TAPP1, 1-oxyl-2,2,6,6-tetramethylpiperidin-4-yl 3-(pyridin-4-yl)-1H-pyrazole-5-carboxylate] here?
Its half-life is about 10 min.

What about the “cataract or other overt toxicity in eyeglobes” value [2] of the same compound?
The value was “no cataract or other overt toxicity”.
